The target of assay [1] is T1, IRE-1α (Homo sapiens (Human), UniProt O75460). The experiment in a line: IRE-1α assay: in vitro cleavage of mini-XBP-1 mRNA stem-loop substrate by GST-IRE-1α. Format: biochemical. The method, then:
A fusion protein comprising glutathione S transferase (GST) and human IRE-1α (GST-IRE-1α) was obtained from a 500 ml baculovirus-infected insect cell culture and used to measure IRE-1α activity in vitro.
Five μl of a reaction mixture comprising 1× reaction buffer (5× reaction buffer is 100 mM Hepes pH 7.5, 250 mM KOAc, 2.5 mM MgCl2), 3 mM DTT, and 0.4% polyethylene glycol water were added to each well of 384 well plates. Twenty-five nanoliters of a 1 mM test compound solution were added to test wells. […] Negative control wells contained only reaction mixture and test compound.
The plates were again spun at 1200 rpm for 30 seconds.
The plates were covered with lids and incubated for one hour at 30° C. The plates were then transferred to an ACQUEST™ microplate reader. Data was analyzed using data analysis software, and the percent activity of IRE-1α was calculated.
Target sequence in this assay (O75460 19-977): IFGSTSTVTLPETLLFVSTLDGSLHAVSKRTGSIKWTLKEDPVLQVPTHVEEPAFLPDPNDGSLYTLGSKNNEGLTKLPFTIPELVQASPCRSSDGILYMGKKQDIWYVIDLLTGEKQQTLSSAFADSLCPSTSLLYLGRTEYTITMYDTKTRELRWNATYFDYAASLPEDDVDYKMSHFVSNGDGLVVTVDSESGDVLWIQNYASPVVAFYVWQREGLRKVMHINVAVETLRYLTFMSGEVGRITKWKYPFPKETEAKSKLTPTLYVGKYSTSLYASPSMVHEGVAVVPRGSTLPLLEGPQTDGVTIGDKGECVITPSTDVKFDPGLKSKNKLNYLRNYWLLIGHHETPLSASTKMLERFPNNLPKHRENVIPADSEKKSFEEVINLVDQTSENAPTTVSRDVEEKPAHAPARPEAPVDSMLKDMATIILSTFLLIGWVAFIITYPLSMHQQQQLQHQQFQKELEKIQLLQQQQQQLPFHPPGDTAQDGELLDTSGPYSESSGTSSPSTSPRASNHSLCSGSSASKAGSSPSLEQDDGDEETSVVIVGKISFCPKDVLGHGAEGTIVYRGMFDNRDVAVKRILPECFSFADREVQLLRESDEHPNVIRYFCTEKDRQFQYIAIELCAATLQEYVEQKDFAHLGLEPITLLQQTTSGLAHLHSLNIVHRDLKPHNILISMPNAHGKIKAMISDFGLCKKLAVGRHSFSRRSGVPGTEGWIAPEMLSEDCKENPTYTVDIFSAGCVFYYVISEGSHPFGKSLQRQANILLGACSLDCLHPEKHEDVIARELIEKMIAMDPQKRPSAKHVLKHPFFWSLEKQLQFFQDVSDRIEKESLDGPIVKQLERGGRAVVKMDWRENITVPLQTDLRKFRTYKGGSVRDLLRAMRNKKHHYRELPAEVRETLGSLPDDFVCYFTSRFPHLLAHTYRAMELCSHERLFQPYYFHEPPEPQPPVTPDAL

The target of assay [2] is T1, IRE-1α. Kind of assay: Phosphorylated IRE-1α and XBP1-splicing in RPMI8226 cells (Western blot, agarose gel). Type of assay: cell-based. The note with it: 24 hour treatment, FIG. 6. From the text: FIG. 6. […] The numbers indicate the concentration of bortezomib in nM.
Assay [3] has as its system human myeloma RPMI8226 tumor xenografts. The experiment in a line: RPMI8226 myeloma tumor xenograft in SCID mice. Type of assay: in vivo, mouse. Particulars: 0.75 mg/kg IV twice weekly.
The subject of the next assay is primary murine B cells. Kind of assay: IgM secretion after LPS stimulation of primary murine B cells. Type of assay: cell-based, mouse. The method, then:
FIG. 9. Inhibition of IgM secretion after LPS stimulation of primary murine B cells with selected IRE-1α inhibitors. […] However, compounds had little effect when at added after 40 hours of stimulation; only slight inhibition at the highest dose. Methods were performed as previously described by Iwakoshi et al., Nature 4, 321-29, 2003 for B cell stimulation, plasma cell differentiation and IgM secretion. Primary B cells were Isolated from BALB/c splenocytes using mouse CD43 Microbeads (Miltenyi cat# 130-049-801) with 1×10^6 cells per treatment. Purified B cells were stimulated in B Cell Media at a final density of 1×10^6/ml/well in 24-well plates with 20 μg/ml LPS (Sigma cat# L4391). IRE-1α inhibitor compound 17-1 was added at various concentrations (50 μM, 10 μM, 2 μM, 0.4 μM and 0.08 μM) at specified time points (t=0, t=24 hr, t=40 hr, etc.) Cells were incubated for 48 hr at 37° C. At end of the incubation, cells were spun in a plate at 1500 rpm/3 min. Supernatants were collected for quantitation for IgM secretion using a mouse IgM ELISA Kit (Bethyl Labs cat# E90-101). B Cell medium included RPMI+10% FBS supplemented with NEAA, HEPES, NaPyr, PSQ, and β-mercaptoethanol.

Assay [4] relates to RPMI-8226 multiple myeloma cells. Kind of assay: Proliferation of multiple myeloma cells (CellTiter-Glo). Format: cell-based, human. The note with it: RPMI8226 cells, 24 hours, FIG. 5. As to the method: FIG. 5. Graph showing inhibition of proliferation of multiple myeloma cells by IRE-1α inhibitor 11-28 (Example 11). RPMI-8226 multiple myeloma cells were seeded at 20,000 cells per well in RPMI culture medium containing 1% FBS and the required antibiotics. The plate was incubated overnight at 37° C., 95% air, 5% CO2. The following day, compound 11-28 or medium alone was added to wells, resulting in a final volume of 100 μl per well. The compound concentration ranged from 100 μM to 0 μM, with compounds diluted by a factor of 4. After addition of compound, the plate was incubated at 37° C., 95% air, 5% CO2 for 24 hours. Cell proliferation was measured using the CellTiter-Glo assay (Promega), following the manufacturer's instructions.
Proliferation assays using myeloma cell lines (U266, RPMI8226 and MM.1s) are used to determine ED50. Compounds are used as single agents and in combination with other chemotherapeutic drugs.
(In ATP-based viability assays light output follows the ATP content of the culture.)

The IC50 is the concentration needed to halve the response being measured. On IRE-1α [1] (Table 3), `COc1cccc(C=O)c1O` [drawing 238] had an IC50 of 5.75 µM.
Regarding `COc1ccc(Br)c(C=O)c1O` [drawing 180], the IC50 on IRE-1α [1] (Table 3) was determined as 0.08 µM.
As for `COc1cccc(C=O)c1O` [o-vanillin, 2-hydroxy-3-methoxybenzaldehyde], half-maximal inhibition at IRE-1α [1] (values in text) (IC50) required 3 µM.
As for `CC(C)C[C@H](NC(=O)[C@H](Cc1ccccc1)NC(=O)c1cnccn1)B(O)O` [bortezomib, [(1R)-3-methyl-1-[[(2S)-1-oxo-3-phenyl-2-[(pyrazinylcarbonyl)amino]propyl]amino]butyl]boronic acid], the “levels of phosphorylated IRE-1α and XBP1-splicing” value at IRE-1α [2] is “increases the levels of phosphorylated IRE-1α and XBP1-splicing”. The tumor growth entry in assay [3] was “suppression of tumor growth”.
For `COc1ccc(Br)c(C=O)c1O` [6-bromo o-vanillin], it took 0.03 µM to reach half-maximal inhibition against IRE-1α [1] (values in text) (IC50).
`CN(C)C(=O)c1ccc(-c2ccc3c(C=O)c(O)ccc3c2)cc1` [17-1, 4-(5-formyl-6-hydroxynaphthalen-2-yl)-N,N-dimethylbenzamide]: the IgM secretion entry with primary murine B cells (added after 40 hours of stimulation) is reported as “little effect”; with primary murine B cells (added at beginning of stimulation and again at 24 hours), “blocked IgM secretion at all doses tested down to 100 nM”.
Consider `COc1cc(-c2cccs2)cc(C=O)c1O` [11-28], for which the inhibition of proliferation result in assay [4] was “inhibits the proliferation of RPMI8226 myeloma cells”.
The molecule `COc1cccc(C=O)c1O` [drawing 230] showed a concentration for half-maximal inhibition (IC50) against IRE-1α [1] (Table 3) of 2.37 µM.

Values taken from US8614253B2, “IRE-1α inhibitors” (MannKind Corporation, priority 2007, dated 2013).
